Experimental data reported in patent US11220504B2, “Pyrrolo[3,2-d] pyrimidine derivatives for the treatment of viral infections and other diseases” (JANSSEN SCIENCES IRELAND UNLIMITED COMPANY, priority 2012, dated 2022).

Key:
human TLR7 = target: T1, human TLR7 (Homo sapiens, UniProt Q9NYK1); experiment: TLR7 cellular reporter assay (HEK293, NFκB-luc); assay type: cell-based; settings: HEK293 cells transfected with CMV-TLR7 and NFκB-luc, 6 hours incubation; lowest effective concentration
T1 construct: expressed in transfected cells; host or cells: HEK293 cells, transient transfection with CMV-TLR7 plasmid and NFκB-luc plasmid
T1 sequence (Q9NYK1 27-1049): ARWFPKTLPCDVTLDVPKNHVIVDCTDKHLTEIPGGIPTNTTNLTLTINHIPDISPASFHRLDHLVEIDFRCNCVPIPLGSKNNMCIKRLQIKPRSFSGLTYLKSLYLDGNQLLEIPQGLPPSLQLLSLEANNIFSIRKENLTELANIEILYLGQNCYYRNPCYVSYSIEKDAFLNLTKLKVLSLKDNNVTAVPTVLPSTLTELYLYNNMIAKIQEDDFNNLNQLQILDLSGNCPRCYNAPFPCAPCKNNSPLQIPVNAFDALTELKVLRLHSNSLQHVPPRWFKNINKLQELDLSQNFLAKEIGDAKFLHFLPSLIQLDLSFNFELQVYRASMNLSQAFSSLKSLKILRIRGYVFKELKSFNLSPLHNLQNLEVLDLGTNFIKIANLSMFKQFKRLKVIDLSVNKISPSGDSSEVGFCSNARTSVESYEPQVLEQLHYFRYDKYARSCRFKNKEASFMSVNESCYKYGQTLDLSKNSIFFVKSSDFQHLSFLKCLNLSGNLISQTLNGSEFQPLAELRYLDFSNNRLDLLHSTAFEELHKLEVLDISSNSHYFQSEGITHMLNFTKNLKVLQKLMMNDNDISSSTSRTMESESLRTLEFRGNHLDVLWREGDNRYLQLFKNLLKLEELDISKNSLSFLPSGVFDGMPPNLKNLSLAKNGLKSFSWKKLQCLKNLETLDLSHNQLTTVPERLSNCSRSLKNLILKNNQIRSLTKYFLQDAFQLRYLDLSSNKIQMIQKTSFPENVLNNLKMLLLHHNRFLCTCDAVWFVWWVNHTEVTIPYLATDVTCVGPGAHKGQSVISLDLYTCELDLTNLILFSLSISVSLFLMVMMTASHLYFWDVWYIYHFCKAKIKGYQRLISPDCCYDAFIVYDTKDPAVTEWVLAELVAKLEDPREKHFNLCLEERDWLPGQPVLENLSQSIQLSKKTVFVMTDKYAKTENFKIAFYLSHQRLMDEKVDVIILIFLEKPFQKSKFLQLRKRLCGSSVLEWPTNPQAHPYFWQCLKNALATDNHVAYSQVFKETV
Protocol: (§1) The ability of compounds to activate human TLR7 and/or TLR8 was assessed in a cellular reporter assay using HEK293 cells transiently transfected with a TLR7 or TLR8 expression vector and NFκB-luc reporter construct.
(§2) Briefly, HEK293 cells were grown in culture medium (DMEM supplemented with 10% FCS and 2 mM Glutamine). […] Thirty microliters of cells were then dispensed into each well in 384-well plates, where 10 μL of compound in 4% DMSO was already present. Following 6 hours incubation at 37° C., 5% CO2, the luciferase activity was determined by adding 15 μL of Steady Lite Plus substrate (Perkin Elmer) to each well and readout performed on a ViewLux ultraHTS microplate imager (Perkin Elmer). Dose response curves were generated from measurements performed in quadruplicates.

human TLR8 = target: T2, human TLR8 (Homo sapiens, UniProt Q9NR97); experiment: TLR8 cellular reporter assay (HEK293, NFκB-luc); assay type: cell-based; settings: HEK293 cells transfected with CMV-TLR8 and NFκB-luc, 6 hours incubation; lowest effective concentration
T2 construct: expressed in transfected cells; host or cells: HEK293 cells, transient transfection with TLR8 plasmid and NFκB-luc plasmid
T2 sequence (Q9NR97 27-1041): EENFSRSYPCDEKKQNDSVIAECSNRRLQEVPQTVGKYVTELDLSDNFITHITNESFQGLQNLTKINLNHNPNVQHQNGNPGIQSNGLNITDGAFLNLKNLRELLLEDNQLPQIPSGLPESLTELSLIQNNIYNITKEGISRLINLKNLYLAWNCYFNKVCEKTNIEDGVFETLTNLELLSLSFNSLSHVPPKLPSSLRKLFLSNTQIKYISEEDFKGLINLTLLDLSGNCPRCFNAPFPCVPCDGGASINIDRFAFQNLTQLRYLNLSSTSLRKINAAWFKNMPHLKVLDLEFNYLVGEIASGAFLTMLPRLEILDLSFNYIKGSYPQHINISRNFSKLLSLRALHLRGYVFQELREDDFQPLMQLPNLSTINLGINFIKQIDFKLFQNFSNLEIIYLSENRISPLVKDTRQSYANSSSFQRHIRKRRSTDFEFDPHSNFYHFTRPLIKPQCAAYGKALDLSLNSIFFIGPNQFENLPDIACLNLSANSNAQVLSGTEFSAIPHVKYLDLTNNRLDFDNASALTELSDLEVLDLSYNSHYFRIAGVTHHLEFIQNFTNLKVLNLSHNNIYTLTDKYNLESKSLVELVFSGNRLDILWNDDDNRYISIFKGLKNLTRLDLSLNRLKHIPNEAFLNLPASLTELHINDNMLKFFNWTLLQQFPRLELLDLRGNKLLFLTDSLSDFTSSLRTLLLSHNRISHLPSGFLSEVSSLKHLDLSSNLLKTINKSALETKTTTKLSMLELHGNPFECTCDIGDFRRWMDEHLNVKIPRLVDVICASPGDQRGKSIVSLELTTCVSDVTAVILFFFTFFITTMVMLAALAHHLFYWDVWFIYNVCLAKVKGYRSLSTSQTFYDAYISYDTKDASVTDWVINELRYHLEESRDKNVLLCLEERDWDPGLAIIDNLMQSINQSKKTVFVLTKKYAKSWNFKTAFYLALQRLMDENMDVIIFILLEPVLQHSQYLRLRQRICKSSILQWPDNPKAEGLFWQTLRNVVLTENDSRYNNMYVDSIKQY
Protocol: as §1, §2

[1] = system: interferon-stimulated responsive elements (ISRE); experiment: Activation of ISRE promoter elements by conditioned media from PBMC (HEK-ISREluc); assay type: cell-based, human; settings: Homo sapiens; conditioned media from PBMC transferred to HEK-ISREluc cells, 24 hours; lowest effective concentration; read-out: PBMC LEC
Protocol: The potential of compounds to induce IFN-I was also evaluated by measuring the activation of interferon-stimulated responsive elements (ISRE) by conditioned media from PBMC. The ISRE element of sequence […] (SEQ. ID NO:1) is highly responsive to the STAT1-STAT2-IRF 9 transcription factor, activated upon binding of IFN-I to their receptor IFNAR (Clontech, PT3372-5W). […] A HEK293 cell line stably transfected with pISRE-Luc (HEK-ISREluc) was established to profile of the conditioned PBMC cell culture media.
Briefly, PBMCs were prepared from buffy coats of at least two donors using a standard Ficoll centrifugation protocol. Isolated PBMCs were resuspended in RPMI medium supplemented with 10% human AB serum and 2×10^5 cells/well were dispensed into 384-well plates containing compounds (70 μL total volume). After overnight incubation, 10 μL of supernatant was transferred to 384-well plates containing 5×10^3 HEK-ISREluc cells/well in 30 μL (plated the day before). Following 24 hours of incubation, activation of the ISRE elements was measured by assaying luciferase activity using 40 μL/well Steady Lite Plus substrate (Perkin Elmer) and measured with ViewLux ultraHTS microplate imager (Perkin Elmer). The stimulating activity of each compound on the HEK-ISREluc cells was reported as LEC value, defined as the compound concentration applied to the PBMCs resulting in a luciferase activity at least two fold above the standard deviation of the assay. The LEC in turn indicates the degree of ISRE activation on transfer of a defined amount of PBMC culture medium. Recombinant interferon α-2a (Roferon-A) was used as a standard control compound.

| Structure (SMILES) | TLR7 LEC (human TLR7) | TLR8 LEC (human TLR8) | minimal effective concentration [1] |
| --- | --- | --- | --- |
| CCCC[C@@H](CCO)Nc1nc(N)nc2ccn(Cc3ccncc3)c12 [Compound 40] | 0.12 µM | 24.61 µM | 0.004 µM |
| CCCCNc1nc(N)nc2ccn(Cc3ccccc3Br)c12 [Compound 6] | 1.3 µM | >25 µM | 0.7 µM |
| COCCNc1nc(N)nc2ccn(Cc3cccc4c3OCCO4)c12 [Compound 164] | 0.04 µM | 15.93 µM | 0.025 µM |
| CCCCNc1nc(N)nc2ccn(CC3CCCCC3)c12 [Compound 52] | 0.12 µM | >25 µM | 0.09 µM |
| COc1cc(OC)nc(Cn2ccc3nc(N)nc(NCc4ncc(C)o4)c32)n1 [Compound 210] | 0.02 µM | >25 µM | 0.003 µM |
| Cc1nc(CNc2nc(N)nc3ccn(Cc4ncccn4)c23)no1 [Compound 203] | 1.04 µM | >25 µM | 0.138 µM |
| CCCC(C)Nc1nc(N)nc2ccn(Cc3c(OC)cccc3OC)c12 (stereo not drawn) [Compound 98] | <0.01 µM | 0.22 µM | 0.001 µM |
| CC(CNc1nc(N)nc2ccn(Cc3ccccc3)c12)C1CC1 (stereo not drawn) [Compound 44] | 1.51 µM | >25 µM | 2.45 µM |
| Cc1cc(CNc2nc(N)nc3ccn(Cc4ccccn4)c23)nn1C [Compound 187] | 4.78 µM | >25 µM | 0.52 µM |
| CCCCNc1nc(N)nc2cc(F)n(Cc3ccccc3)c12 [Compound 86] | 1.63 µM | >25 µM | 0.47 µM |
| CCCC(C)Nc1nc(N)nc2ccn(Cc3ccccc3)c12 (stereo not drawn) [Compound 33] | 0.03 µM | >25 µM | 0.04 µM |
| CCCCNc1nc(N)nc2ccn(CCn3cccc3)c12 [Compound 66] | 2.57 µM | 3.96 µM | 0.91 µM |
| COCCNc1nc(N)nc2ccn(Cc3cscn3)c12 [Compound 132] | 5.99 µM | >25 µM | 0.879 µM |

Further lines, with some results ahead:

| TLR7 LEC (human TLR7) | TLR8 LEC (human TLR8) | Structure (SMILES) | minimal effective concentration [1] |
| --- | --- | --- | --- |
| 12.5 µM | >25 µM | COCCNc1nc(N)nc2ccn(Cc3cc(OC4CCOC4)c(OC)cn3)c12 (stereo not drawn) [Compound 135] | 4.05 µM |
| 1.01 µM | >25 µM | CCCCNc1nc(N)nc2ccn(Cc3cc4ccccc4cn3)c12 [Compound 50] | 0.13 µM |
| 0.07 µM | 0.57 µM | CCC[C@@H](CCO)Nc1nc(N)nc2ccn(CC3CCC3)c12 [Compound 82] | 0.01 µM |
| 0.25 µM | >25 µM | COCCNc1nc(N)nc2ccn(Cc3cccc4c3OCC4)c12 [Compound 150] | 0.054 µM |
| 0.17 µM | >25 µM | CCC[C@@H](CCO)Nc1nc(N)nc2ccn(Cc3ccncc3)c12 [Compound 39] | 0.009 µM |
| 0.53 µM | >25 µM | Cc1nc(CNc2nc(N)nc3ccn(Cc4ccccn4)c23)no1 [Compound 173] | 0.066 µM |
| 0.07 µM | >25 µM | Cc1cc(CNc2nc(N)nc3ccn(Cc4ncccc4C)c23)no1 [Compound 185] | 0.018 µM |
| 0.14 µM | 1.3 µM | CCCCNc1nc(N)nc2ccn(Cc3cc(C)on3)c12 [Compound 20] | 0.02 µM |
| 0.60 µM | 23.5 µM | COCCn1ccc2nc(N)nc(NCc3cc(C(C)C)on3)c21 [Compound 199] | 0.032 µM |
| <0.01 µM | 0.75 µM | CCCCNc1nc(N)nc2ccn(Cc3cccc4c3OCCO4)c12 [Compound 163] | 0.001 µM |
| 17.5 µM | >25 µM | CC(C)=CCNc1nc(N)nc2ccn(Cc3ccccc3)c12 [Compound 47] | 1.79 µM |
| 0.28 µM | >25 µM | CCCCNc1nc(N)nc2ccn(Cc3ccc(F)cc3)c12 [Compound 42] | 0.16 µM |
| 0.02 µM | 6.47 µM | CCC[C@@H](CCO)Nc1nc(N)nc2ccn(Cc3ccccn3)c12 [Compound 24] | 0.0007 µM |
| 0.03 µM | >25 µM | Cc1cccc(Cn2ccc3nc(N)nc(NCc4cc(C)on4)c32)n1 [Compound 90] | 0.01 µM |
| 0.07 µM | >25 µM | Cc1cc(CNc2nc(N)nc3ccn(Cc4csc(C)n4)c23)no1 [Compound 192] | 0.03 µM |
